Measurements taken from the supplement of paper PMC11061612.

Columns and labels:
Test in all cases: Bliss excess, mean over the matrix (fraction); higher = more synergy
[1] = test system: A101D (Melanoma)
Summary of the method: (§1)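 After 24 hours at 37°C and 5% CO2 in 1536-well plates, cells in DMEM/F12 or RPMI plus 10% FBS received two-drug dose matrices for 72 hours. Viability came from CellTiter-Glo 2.0 luminescence and was scaled as inhibition, anchored at 0 by vehicle wells and at 1 by blank wells. Combination Emax is taken as the second-highest inhibition in the matrix, and Bliss excess as the observed combination effect less EA + EB − EA·EB, with EA and EB the single-agent effects.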

[2] = test system: WM1552C (Melanoma)
Summary of the method: as §1

[3] = test system: A2780 (Ovarian Carcinoma)
Summary of the method: as §1

[4] = test system: OACp4C (Esophageal Adenocarcinoma)
Summary of the method: as §1

[5] = test system: CA46 (Burkitt's Lymphoma)
Summary of the method: as §1

[6] = test system: G-402 (Other Solid Carcinomas)
Summary of the method: as §1

[7] = test system: DU-4475 (Breast Carcinoma)
Summary of the method: as §1

[8] = test system: MHH-ES-1 (Ewing's Sarcoma)
Summary of the method: as §1

[9] = test system: CESS (Acute Myeloid Leukemia)
Summary of the method: as §1

[10] = test system: ESO26 (Esophageal Adenocarcinoma)
Summary of the method: as §1

[11] = test system: CGTH-W-1 (Thyroid Gland Carcinoma)
Summary of the method: as §1

[12] = test system: CAL-27 (Oral Cavity Carcinoma)
Summary of the method: as §1

[13] = test system: NCI-H1651 (Lung Adenocarcinoma)
Summary of the method: as §1

[14] = test system: DMS-53 (Small Cell Lung Carcinoma)
Summary of the method: as §1

[15] = test system: AU565 (Breast Carcinoma)
Summary of the method: as §1

[16] = test system: EW-7 (Ewing's Sarcoma)
Summary of the method: as §1

[17] = test system: EB2 (Burkitt's Lymphoma)
Summary of the method: as §1

[18] = test system: PEO1 (Ovarian Carcinoma)
Summary of the method: as §1

[19] = test system: MDA-MB-436 (Breast Carcinoma)
Summary of the method: as §1

[20] = test system: HCC1428 (Breast Carcinoma)
Summary of the method: as §1

| SMILES | Bliss excess [1] | Bliss excess [2] | Bliss excess [3] | Bliss excess [4] | Bliss excess [5] | Bliss excess [6] | Bliss excess [7] | Bliss excess [8] | Bliss excess [9] | Bliss excess [10] | Bliss excess [11] | Bliss excess [12] | Bliss excess [13] | Bliss excess [14] | Bliss excess [15] | Bliss excess [16] | Bliss excess [17] | Bliss excess [18] | Bliss excess [19] | Bliss excess [20] |
| --- | --- | --- | --- | --- | --- | --- | --- | --- | --- | --- | --- | --- | --- | --- | --- | --- | --- | --- | --- | --- |
| COc1nnc2ccc(N3CCC(c4ccc(OCCN5CCN(C)C(=O)[C@H]5C)cc4)CC3)nn12 [AZD5153] + C=CCn1c(=O)c2cnc(Nc3ccc(N4CCN(C)CC4)cc3)nc2n1-c1cccc(C(C)(C)O)n1 [AZD1775] (first compound max 1 µM, partner max 1 µM) | -0.0825 | -0.0776 | -0.0523 | -0.0295 | -0.0572 | -0.0226 | 0.0311 | -0.0662 | -0.0643 | -0.0501 | 0.0137 | -0.0481 | 0.0305 | 0.0269 | -0.0144 | -0.0403 | -0.135 | 0.058 | -0.0783 | -0.0221 |
| CN(C)CCCOc1ccc(-c2ccc3ncc4c(c3c2)n(C2CCOCC2)c(=O)n4C)cn1 [AZD0156] + C[C@@H]1COCCN1C2=NC(=NC(=C2)C3(CC3)[S@](=N)(=O)C)C4=C5C=CNC5=NC=C4 [AZD6738] (first compound max 1 µM, 7x7, partner max 10 µM) | 0.0058 | 0.0189 | -0.0114 | 0.0169 | 0.0799 | -0.0306 | -0.0587 | 0.0361 | 0.0386 | 0.0158 | -0.0189 | 0.0433 | -0.0468 | -0.0249 | 0.0094 | 0.0318 | -0.0562 | -0.0327 | -0.0396 | -0.0541 |
| COc1cccc(OCCCN)c1-c1cc(Nc2cnc(C#N)cn2)n[nH]1 [Prexasertib] + Cc1cc2ncnn2cc1Nc1ncc2c(n1)n(C1CCOCC1)c(=O)n2C [AZD7648] (first compound max 1 µM, 7x7, partner max 10 µM) | 0.0232 | -0.0385 | 0.0097 | 0.0093 | -0.0182 | -0.0602 | 0.0256 | -0.004 | 0.0409 | 0.0142 | -0.0455 | 0.0291 | -0.132 | -0.0344 | 0.0086 | -0.0118 | -0.0306 | -0.0117 | -0.0552 | -0.0714 |
| CC1(C)CCC(CN2CCN(c3ccc(C(=O)NS(=O)(=O)c4ccc(NCC5CCOCC5)c([N+](=O)[O-])c4)c(Oc4cnc5[nH]ccc5c4)c3)CC2)=C(c2ccc(Cl)cc2)C1 [Venetoclax] + CCN(CCO)CCCOc1ccc2c(Nc3cc(CC(=O)Nc4cccc(F)c4)[nH]n3)ncnc2c1 [AZD2811] (first compound max 1 µM, 7x7, partner max 1 µM) | -0.0182 | -0.0804 | 0.019 | -0.0234 | -0.0283 | -0.0036 | 0.0087 | 0.0824 | 0.0083 | -0.0262 | -0.0078 | -0.0302 | 0.0011 | 0.069 | 0.0097 | -0.0227 | -0.0357 | -0.0314 | -0.023 | 0.118 |
| Cc1c2c(nn1C)CSCc1cc(n(C)n1)CSc1cc(c3ccccc3c1)OCCCc1c(C(=O)O)n(C)c3c-2c(Cl)ccc13 [AZD5991] + C1CN(CCC1(C(=O)N[C@@H](CCO)C2=CC=C(C=C2)Cl)N)C3=NC=NC4=C3C=CN4 [Capivasertib] (first compound max 1 µM, 7x7, partner max 3 µM) | 0.0252 | -0.004 | -0.0233 | 0.019 | 0.0205 | 0.0445 | -0.0023 | 0.0008 | -0.0114 | -0.0014 | 0.0091 | 0.0073 | 0.0279 | 0.0168 | 0.0218 | 0.0459 | -0.0375 | -0.0428 | -0.0204 | 0.0136 |
| CC1(C)CCC(CN2CCN(c3ccc(C(=O)NS(=O)(=O)c4ccc(NCC5CCOCC5)c([N+](=O)[O-])c4)c(Oc4cnc5[nH]ccc5c4)c3)CC2)=C(c2ccc(Cl)cc2)C1 [Venetoclax] + C[C@@H]1COCCN1C2=NC(=NC(=C2)C3(CC3)[S@](=N)(=O)C)C4=C5C=CNC5=NC=C4 [AZD6738] (first compound max 1 µM, 7x7, partner max 10 µM) | -0.0313 | -0.0603 | -0.0548 | -0.0418 | 0.0093 | -0.0004 | 0.0062 | 0.0077 | -0.0075 | -0.0101 | -0.0224 | -0.0559 | -0.0123 | 0.119 | 0.0024 | -0.037 | -0.035 | -0.0038 | -0.0167 | -0.0137 |
| NC1(C(=O)N[C@@H](CCO)c2ccc(Cl)cc2)CCN(c2ncnc3[nH]ccc23)CC1 [Capivasertib] + COc1nnc2ccc(N3CCC(c4ccc(OCCN5CCN(C)C(=O)[C@H]5C)cc4)CC3)nn12 [AZD5153] (first compound max 10 µM, 7x7, partner max 1 µM) | 0.0062 | -0.0366 | -0.0148 | 0.0153 | -0.0183 | -0.02 | 0.02 | 0.0467 | 0.0506 | 0.0358 | 0.0068 | -0.0366 | -0.0361 | -0.0195 | 0.0693 | -0.0004 | -0.0966 | 0.0529 | -0.0555 | -0.0596 |
| CC1(C)CCC(CN2CCN(c3ccc(C(=O)NS(=O)(=O)c4ccc(NCC5CCOCC5)c([N+](=O)[O-])c4)c(Oc4cnc5[nH]ccc5c4)c3)CC2)=C(c2ccc(Cl)cc2)C1 [Venetoclax] + C1CN(CCC1(C(=O)N[C@@H](CCO)C2=CC=C(C=C2)Cl)N)C3=NC=NC4=C3C=CN4 [Capivasertib] (first compound max 1 µM, 7x7, partner max 3 µM) | -0.0652 | -0.0834 | -0.0223 | -0.0062 | -0.0473 | -0.12 | 0.0239 | -0.01 | -0.0707 | -0.0751 | -0.0532 | -0.0432 | -0.0184 | 0.0707 | 0.0463 | -0.0149 | -0.0286 | -0.0564 | -0.0513 | -0.0377 |
| Cc1c2c(nn1C)CSCc1cc(n(C)n1)CSc1cc(c3ccccc3c1)OCCCc1c(C(=O)O)n(C)c3c-2c(Cl)ccc13 [AZD5991] + CN(C)CCCOc1ccc(-c2ccc3ncc4c(c3c2)n(C2CCOCC2)c(=O)n4C)cn1 [AZD0156] (first compound max 1 µM, 7x7, partner max 1 µM) | -0.0801 | -0.0444 | -0.0094 | 0.0162 | -0.0705 | 0.0162 | -0.0262 | -0.0112 | -0.026 | 0.008 | -0.0151 | -0.0227 | 0.0042 | 0.0854 | 0.0204 | 0.0313 | -0.0423 | -0.0155 | -0.0369 | -0.0089 |
| COc1nnc2ccc(N3CCC(c4ccc(OCCN5CCN(C)C(=O)[C@H]5C)cc4)CC3)nn12 [AZD5153] + C[C@@H]1COCCN1C2=NC(=NC(=C2)C3(CC3)[S@](=N)(=O)C)C4=C5C=CNC5=NC=C4 [AZD6738] (first compound max 1 µM, 7x7, partner max 10 µM) | -0.0186 | -0.0783 | -0.0058 | 0.0085 | -0.0051 | 0.0025 | 0.0294 | 0.0074 | -0.0554 | 0.0343 | 0.0604 | 0.0095 | 0.0178 | 0.037 | 0.009 | 0.034 | -0.0996 | 0.0911 | -0.0104 | 0.0209 |
| CC(=O)Nc1cccc(-n2c(=O)n(C3CC3)c(=O)c3c(Nc4ccc(I)cc4F)n(C)c(=O)c(C)c32)c1 [Trametinib] + Cc1nc(-c2cn3c(n2)-c2ccc(-c4cnn(C(C)(C)C(N)=O)c4)cc2OCC3)n(C(C)C)n1 [Taselisib] (first compound max 1 µM, 7x7, partner max 10 µM) | 0.0168 | 0.0903 | 0.0164 | 0.0416 | 0.0404 | 0.0104 | 0.0664 | 0.0141 | 0.219 | 0.147 | 0.174 | 0.128 | 0.0354 | 0.0285 | 0.102 | 0.0479 | 0.0658 | 0.204 | 0.0567 | 0.0116 |
| COc1cccc(OCCCN)c1-c1cc(Nc2cnc(C#N)cn2)n[nH]1 [Prexasertib] + C[C@@H]1COCCN1C2=NC(=NC(=C2)C3(CC3)[S@](=N)(=O)C)C4=C5C=CNC5=NC=C4 [AZD6738] (first compound max 1 µM, 7x7, partner max 10 µM) | -0.0066 | -0.0372 | -0.0173 | -0.0882 | -0.0755 | -0.0253 | -0.022 | -0.0161 | -0.0065 | -0.0681 | -0.0348 | 0.0227 | -0.0439 | 0.032 | -0.0612 | -0.0437 | -0.0478 | -0.0083 | 0.0051 | -0.02 |
